According to patent publication US20110008461A1 (priority 2008, published 2011):
“And” between values parts separate entries of the source, which are not always exact repeats. Equal entries are not always repeated. Structures can show the parent of a compound that is named as a salt. Where two headings read alike, the source gives them in different places. Marks after values point to notes of the source that are not given here. One block for each molecule: values may come before it.

How the values were obtained:
[1] = target: T1, Rat Liver Cytosolic Phosphoenolpyruvate Carboxykinase (Rattus norvegicus, UniProt P07379); experiment: Continuous spectrophotometric PEPCK inhibition assay coupled to malate dehydrogenase (preliminary screen, inhibition patterns, Dixon plots); settings: for Inhibition of PEPCK (in words): against PEP;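 as to all read-outs here: PEPCK activity followed continuously via malate dehydrogenase coupling, where OAA reduction consumes NADH, seen as falling absorbance at 340 nm, run at 35 °C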
T1 sequence (P07379 1-622): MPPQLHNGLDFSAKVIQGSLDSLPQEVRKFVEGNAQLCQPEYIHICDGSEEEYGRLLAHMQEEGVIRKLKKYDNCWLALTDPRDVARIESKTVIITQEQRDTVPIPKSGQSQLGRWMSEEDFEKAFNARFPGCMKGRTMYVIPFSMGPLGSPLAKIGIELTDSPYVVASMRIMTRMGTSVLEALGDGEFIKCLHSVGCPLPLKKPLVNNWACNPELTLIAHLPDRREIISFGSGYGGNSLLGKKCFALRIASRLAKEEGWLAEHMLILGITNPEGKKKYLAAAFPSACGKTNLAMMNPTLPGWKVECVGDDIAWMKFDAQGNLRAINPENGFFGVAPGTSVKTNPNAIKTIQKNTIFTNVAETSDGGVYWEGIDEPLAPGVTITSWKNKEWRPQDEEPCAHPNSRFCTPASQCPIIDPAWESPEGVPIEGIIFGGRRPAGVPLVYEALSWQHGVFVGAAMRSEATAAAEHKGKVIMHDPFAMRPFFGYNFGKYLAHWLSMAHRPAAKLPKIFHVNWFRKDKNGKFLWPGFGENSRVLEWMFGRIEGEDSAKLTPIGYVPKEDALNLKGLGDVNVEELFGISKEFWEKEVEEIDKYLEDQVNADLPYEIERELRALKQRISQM
Protocol: TES (pH 7.2), 7.5% glycerol (v:v), 0.2 mM EDTA.
The inhibition of PEPCK by various compounds was evaluated using a continuous spectrophotometric assay in which the coupling enzyme, malate dehydrogenase, reduced OAA to malate concomitant with the oxidation of NADH to NAD^+. The decrease in absorbance at 340 nm was monitored using a Beckman DU-70 Spectrophotometer equipped with a temperature controller. The standard 1-mL reaction mixture for the production of OAA contained 56 mM HEPES-KOH buffer (pH 7.0), 1 mM IDP (or alternatively, 0.1 mM GDP), 23 U malate dehydrogenase (1 unit of malate dehydrogenase is defined as 1 mole malate produced/min/mg protein), 0.25 mM NADH, 2.3 mM MnCl2, and 48 mM NaHCO3. […] All assay components except PEPCK were preincubated in the cuvette for 3 min at 35° C., the standard assay temperature.
The kinetic parameters for the inhibition studies were best fit to the equations for competitive inhibition (Eq. 1) and noncompetitive inhibition (Eq. 2), using the computer program and nomenclature of Cleland (Cleland, W. W. (1979) Statistical analysis of enzyme kinetic data. Methods Enzymol 63, 103-138).
v=VA/[K(1+1/Kis)+A] (Eq. 1)
v=VA/[K(1/Kis)+A(1+1/Kii)] (Eq. 2)
The parameters are defined as follows: v is the initial velocity, V is the maximal rate of product formation in the absence of inhibitor, A is the concentration of the variable substrate, K is the apparent Michaelis constant for the varied substrate, and Kis and Kii are the inhibition constants.

[2] = target: pyrophosphate-dependent phosphofructokinase; settings: reported; cited from earlier work
PEPCK [3] = settings: cited from earlier work
PEPCK [4] = target: T2, PEPCK (Rattus norvegicus, UniProt P07379); experiment: Kinetic analysis of CMMP inhibition of PEPCK against PEP (FIG. 5); assay type: biochemical
T2 sequence (P07379 1-622): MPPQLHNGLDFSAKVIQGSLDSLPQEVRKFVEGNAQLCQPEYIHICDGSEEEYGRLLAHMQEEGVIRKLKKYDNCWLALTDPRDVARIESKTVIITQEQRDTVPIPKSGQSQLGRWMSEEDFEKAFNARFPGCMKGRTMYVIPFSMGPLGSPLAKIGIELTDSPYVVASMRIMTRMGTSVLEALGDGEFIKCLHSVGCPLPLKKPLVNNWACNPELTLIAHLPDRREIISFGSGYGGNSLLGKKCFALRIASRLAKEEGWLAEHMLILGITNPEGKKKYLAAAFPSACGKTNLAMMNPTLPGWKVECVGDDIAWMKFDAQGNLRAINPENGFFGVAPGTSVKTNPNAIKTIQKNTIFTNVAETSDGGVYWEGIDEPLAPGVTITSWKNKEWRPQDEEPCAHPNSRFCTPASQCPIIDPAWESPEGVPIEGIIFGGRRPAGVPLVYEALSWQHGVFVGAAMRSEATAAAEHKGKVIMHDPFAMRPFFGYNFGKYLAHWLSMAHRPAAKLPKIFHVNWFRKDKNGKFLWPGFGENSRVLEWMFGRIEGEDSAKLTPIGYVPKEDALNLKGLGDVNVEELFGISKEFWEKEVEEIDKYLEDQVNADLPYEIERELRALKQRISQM
Excerpt: The ‘I’ values given in the legend are the concentrations of CMMP used in uM.
This was originally supported by the inhibition of PEPCK by sulfoacetate. […] Based upon that work, we proposed a novel scaffold to be utilized in the development of molecules that bridge these two sub-sites with and in doing so would gain potency and, perhaps more importantly with a metabolic enzyme like PEPCK, specificity. This scaffold is Formulas C, E, and/or G and an example is CMMP. […] This molecule thereby gains both potency and specificity for PEPCK. […] The information obtained from FIGS. 4 and 5 indicate that derivatives of CMMP, as shown by the scaffolds of Formulas E and G, are likely to be similarly effective as CMMP.

[5] = analogue 3 mM, PEP 40 μM, preliminary screen, average of two PEPCK preparations

Molecule: O=C(O)CNCP(=O)(O)O [Compound 17, N-Phosphonomethylglycine]
% Activity Remaining [1, 5]: 104^c %

% Activity Remaining ([1]; analogue 6 mM, PEP 40 μM, preliminary screen, average of two PEPCK preparations): 52^e %
Ki ([1]; from Dixon plots using two PEP concentrations): ~2000 µM
Ki ([1]; from Dixon plots using two PEP concentrations, listed as Maleate (5)): 2000 µM
Molecule: O=C(O)/C=C\C(=O)O [Compound 5, Maleate]

Molecule: C=C(CC(=O)O)C(=O)O [Compound 7, Itaconate]
% Activity Remaining [1, 5]: 91^c %

Pattern of Inhibition ([1]; PEP varied substrate): noncompetitive
Pattern of Inhibition ([1]; PEP varied substrate, listed as Methanediphosphonate (29)): Noncompetitive
% Activity Remaining ([1]; analogue 1.5 mM, PEP 40 μM, preliminary screen, average of two PEPCK preparations): 4^f %
Ki ([1]; read-out: Ki, intercept effect (Kii), noncompetitive, PEP varied substrate): 90 ± 5 µM
Ki ([1]; read-out: Ki, slope effect (Kis), noncompetitive, PEP varied substrate, Cleland kinetics program): 32 ± 2 µM
Molecule: O=P(O)(O)CP(=O)(O)O [Compound 29, Methanediphosphonate]
IC50 [2]: > 2000 µM

Molecule: O=C(O)CCS(=O)(=O)O [Compound 25, 3-Sulfopropionate]
Pattern of Inhibition ([1]; PEP varied substrate): Competitive
Ki ([1]; PEP varied substrate, Cleland kinetics program, 35° C., pH 7.0): 3400 ± 300 µM
Inhibition of PEPCK (in words) [1]: poor inhibitor
% Activity Remaining [1, 5]: 69^c %

Inhibition of PEPCK (in words) [1]: does not cause inhibition
% Activity Remaining [1, 5]: 105^c %
Molecule: N[C@@H](CS(=O)O)C(=O)O [Compound 27, Cysteine sulfinic acid]

Molecule: O=C(O)C1CCCC1C(=O)O (centres unmarked) [Compound 8, 1,2-Cyclopentanedicarboxylate]
% Activity Remaining [1]: 91^c %

Molecule: CC(C)(C(=O)O)S(=O)(=O)O [Compound 24, 2,2-Dimethylsulfoacetate]
Ki relative to sulfoacetate [1]: 25 fold
Pattern of Inhibition [1]: Competitive
% Activity Remaining [1, 5]: 65^c %
Ki ([1]; pH 7): 2100 ± 200 µM

Molecule: C=C(CP(=O)(O)O)C(=O)O [Compound 15, 2-(Phosphonomethyl)acrylate]
Inhibition of PEPCK (in words) [1]: noninhibitory
% Activity Remaining [1, 5]: 92^c %

Molecule: O=C(O)CC(=O)O [Compound 2, Malonate]
% Activity Remaining [1, 5]: 102^c %

Molecule: O=P(O)(O)OP(=O)(O)O [Compound 28, Pyrophosphate]
% Activity Remaining [1]: 22^f %
Ki [1]: 172 µM
Ki ([1]; read-out: Ki, intercept effect (Kii)): 63 µM and 64 µM
Ki ([1]; read-out: Ki, slope effect (Kis)): 34 µM

Molecule: Phenylphosphate [Compound 34]
% Activity Remaining [1, 5]: 96^c %

Molecule: O=C(O)C(=O)O [Compound 1, Oxalate]
Ki (PEPCK [3]): 5 to 89 µM

Ki (PEPCK [4]): 12 µM
Pattern of Inhibition (PEPCK [4]; against PEP): competitive
Molecule: O=C(O)CSc1cccnc1C(=O)O [CMMP, 3-carboxymethylmercaptopicolinic acid]

Inhibition of PEPCK (in words) [1]: even less inhibitory
% Activity Remaining [1, 5]: 76^c %
Molecule: N[C@@H](CS(=O)(=O)O)C(=O)O [Compound 26, Cysteic acid]

% Activity Remaining [1, 5]: 112^c %
Molecule: N[C@@H](CC(=O)O)C(=O)O [Compound 9, L-Aspartate]

Molecule: O=C(O)CP(=O)(O)O [Compound 11, Phosphonoacetate]
Inhibition of PEPCK (in words) [1]: noninhibitory
% Activity Remaining [1, 5]: 108^c %
